This is an account of results in patent publication US20040102423A1, “Spironolactone and angiotensin II antagonist combination therapy for treatment of congestive heart failure” (G.D. Searle & Co., priority 1995, published 2004).

The structures appear in SMILES notation.

The test system of experiment [1] is rabbit aortic rings. The experiment is described as follows: Assay B: In vitro vascular smooth muscle response for AII (antagonist activity, pA2). The experiment is classed as cell-based. Conditions: for Kb: Oryctolagus cuniculus, two values in a cell = two determinations. The method, then: Assay B: In Vitro Vascular Smooth Muscle-Response for AII
The compounds of the invention were tested for antagonist activity in rabbit aortic rings. Male New Zealand white rabbits (2-2.5 kg) were sacrificed using an overdose of pentobarbital and exsanguinated via the carotid arteries. The thoracic aorta was removed, cleaned of adherent fat and connective tissue and then cut into 3-mm ring segments. The endothelium was removed from the rings by gently sliding a rolled-up piece of filter paper into the vessel lumen. The rings were then mounted in a water-jacketed tissue bath, maintained at 37° C., between moveable and fixed ends of a stainless steel wire with the moveable end attached to an FT03 Grass transducer coupled to a Model 7D Grass Polygraph for recording isometric force responses. The bath was filled with 20 ml of oxygenated (95% oxygen/5% carbon dioxide) Krebs solution of the following composition (mM): 130 NaCl, 15 NaHCO3, […], 1.2 NaH2PO4, 1.2 MgSO4, 2.5 CaCl2, and 11.4 glucose. The preparations were equilibrated for one hour before approximately one gram of passive tension was placed on the rings. Angiotensin II concentration-response curves were then recorded (3×10^−10 to 1×10^−5 M). Each concentration of AII was allowed to elicit its maximal contraction, and then AII was washed out repeatedly for 30 minutes before rechallenging with a higher concentration of AII. Aorta rings were exposed to the test antagonist at 10^−5 M for 5 minutes before challenging with AII. Adjacent segments of the same aorta ring were used for all concentration-response curves in the presence or absence of the test antagonist. The effectiveness of the test compound was expressed in terms of pA2 values and were calculated according to H. O. Schild [Br. J. Pharmacol. Chemother., 2, 189-206 (1947)]. The pA2 value is […] which increases the EC50 value for AII by a factor of two. Each test antagonist was evaluated in aorta rings from two rabbits.

In experiment [2] the target is angiotensin II AT1 receptor. Nature of the experiment: Assay A: Angiotensin II binding activity, rat uterine membrane preparation, 125I-AII displacement. How it is done: Assay A: Antiotensin II Binding Activity
Compounds of the invention were tested for ability to bind to the smooth muscle angiotensin II receptor using a rat uterine membrane preparation. […] Rat uterine membranes were prepared from fresh tissue. All procedures were carried out at 4° C. Uteri were stripped of fat and homogenized in phosphate-buffered saline at pH 7.4 containing 5 mM EDTA. The homogenate was centrifuged at 1500×g for 20 min., and the supernatant was recentrifuged at 100,000×g for 60 min. The pellet was resuspended in buffer consisting of 2 mM EDTA and 50 mM Tris-HCl (pH 7.5) to a final protein concentration of 4 mg/ml. […] The reaction was initiated by the addition of membrane protein and the mixture was incubated at 25° C. for 60 min. The incubation was terminated with ice-cold 50 mM Tris-HCl (pH 7.5) and the mixture was filtered to separate membrane-bound labelled peptide from the free ligand. The incubation tube and filter were washed with ice-cold buffer. Filters were assayed for radioactivity in a Micromedic gamma counter. Nonspecific binding was defined as binding in the presence of 10 μM of unlabelled AII. Specific binding was calculated as total binding minus nonspecific binding. […] Binding data were analyzed by a nonlinear least-squares curve fitting program.

Experiment [3] concerns pressor response to AII. Nature of the experiment: Assay C: In vivo intragastric pressor assay response for AII antagonists. The arrangement: species or system Sprague-Dawley rats. Conditions: in vivo pressor response, 3 mg/kg intragastrically; for inhibition in vivo at 3 mg/kg: Rattus norvegicus, po.

Usually Kb stands for the equilibrium dissociation constant of an antagonist, usually derived from a functional assay. As a reminder, the IC50 is the concentration needed to halve the response being measured. Read a high IC50 as weaker potency. `CCCCc1nc(Cc2ccc(-c3ccccc3C(=O)O)cc2)n(CCCC)n1` [Compound 137] had a Kb in experiment [1] of 5.01 nM. For the same molecule, the IC50 in experiment [2] amounted to 220 nM.
For `CCCCc1nn(CC(=O)O)c(=O)n1Cc1ccc(-c2ccccc2-c2nn[nH]n2)cc1` [Compound 98] the same measures were 7.94 nM and 22 nM.
In the case of `CCCCc1nc(CC23CC4CC(CC(C4)C2)C3)nn1Cc1ccc(-c2ccccc2-c2nnn[nH]2)cc1` [Compound 73], in experiment [1], the Kb is 22.4 nM. This molecule had an IC50 in experiment [2] of 790 nM.
On the same counts, the results for `CCCCc1nc(CC)n(Cc2ccc(-c3ccccc3-c3nnn[nH]3)cc2)n1` [Compound 51] are 4.07 nM and 8.7 nM.
For `CCCCc1nc(CCCC)n(Cc2ccc(-c3ccccc3-c3nnn[nH]3)cc2)n1` [Compound 14] the same measures were 1.45 nM and 7.2 nM.
The molecule `CCCCc1cn(CCc2cccs2)c(=O)n1Cc1ccc(-c2ccccc2-c2nnn[nH]2)cc1` [Compound 145] showed a Kb in experiment [1] of 200 nM. The IC50 in experiment [2] was found to be 0.48 nM.
The molecule `CCCCCc1nc(CCCCC)n(Cc2ccc(-c3ccccc3-c3nnn[nH]3)cc2)n1` [Compound 24] had an antagonist dissociation constant (Kb) in experiment [1] of 27.5 nM. The IC50 in experiment [2] turned out to be 10 nM.
On the same counts, the results for `CCCCc1nc(CCCC)n(Cc2ccc(-c3ccccc3C(=O)NN)cc2)n1` [Compound 15] are 4.9 nM and 16 nM.
On the same counts, the results for `CCCCc1nn(CC(=O)c2cc(OC)ccc2OC)c(=O)n1Cc1ccc(-c2ccccc2-c2nn[nH]n2)cc1` [Compound 107] are 5.01 nM and 180 nM.
`CCCCc1nc(CC)n(Cc2ccc(-c3ccccc3C(=O)O)cc2)n1` [Compound 87] had an antagonist equilibrium constant (Kb) in experiment [1] of 15.8 nM. The same molecule had an IC50 in experiment [2] of 91 nM.
For `CCCCc1nc(CCc2ccccc2)n(Cc2ccc(-c3ccccc3-c3nnn[nH]3)cc2)n1` [Compound 36] the same measures were 1200 nM and 1400 nM.
On the same counts, the results for `CCCCc1nn(C(CC(=O)OCC)C(=O)c2ccccc2)c(=O)n1Cc1ccc(-c2ccccc2-c2nn[nH]n2)cc1` (centres unmarked) [Compound 112] are 6310 nM and 2000 nM.
On the same counts, the results for `CCCCc1nn(CCCC)c(=O)n1Cc1ccc(-c2ccccc2C(=O)O)cc1` [Compound 89] are 12.6 nM and 18 nM.
The molecule `CCCCn1nc(C(C)=O)nc1Cc1ccc(-c2ccccc2-c2nnn[nH]2)nc1` [Compound 194] had a Kb in experiment [1] of 22.9 nM. This molecule came in with an IC50 in experiment [2] of 47 nM.
For `CCCCc1nc(C2CCCCC2)nn1Cc1ccc(-c2ccccc2-c2nnn[nH]2)cc1` [Compound 77] the same measures were 1700 nM and 15000 nM.
For `CCCCc1nn(Cc2ccc3ccccc3c2)c(=O)n1Cc1ccc(-c2ccccc2-c2nn[nH]n2)cc1` [Compound 110] the same measures were 398 nM and 590 nM.
For `CCCCc1nc(Cl)n(Cc2ccc(-c3ccccc3C(=O)O)cc2)n1` [Compound 19] the same measures were 6610 nM and 12000 nM.
Take `CCCCc1nc(CCCNC(=O)OC(C)(C)C)nn1Cc1ccc(-c2ccccc2-c2nnn[nH]2)cc1` [Compound 79]: in experiment [1], the Kb was 0.631 nM. Besides, the IC50 in experiment [2] was determined as 4.9 nM.
In experiment [1], `CCCCc1nn(C/C=C/c2ccccc2)c(=O)n1Cc1ccc(-c2ccccc2-c2nn[nH]n2)cc1` [Compound 116] gave a Kb of 316 nM. The same molecule had an IC50 in experiment [2] of 230 nM.
For the molecule `CCCc1cn(CCC)c(=O)n1Cc1ccc(-c2ccccc2-c2nnn[nH]2)cc1` [Compound 149], the Kb in experiment [1] was 794 nM. In experiment [2], the IC50 worked out at 1.1 nM.
On the same counts, the results for `CCCCc1nc(C(OC)OC)nn1Cc1ccc(-c2ccccc2-c2nnn[nH]2)cc1` [Compound 35] are 56.2 nM and 41 nM.
For `CCCCc1nn(Cc2cccc3ccccc23)c(=O)n1Cc1ccc(-c2ccccc2-c2nn[nH]n2)cc1` [Compound 99] the same measures were 316 nM and 280 nM.
For `CCCCc1nc(CCCC)n(Cc2ccc(-c3ccccc3C(=O)NNS(=O)(=O)C(F)(F)F)cc2)n1` [Compound 16] the same measures were 1.12 nM and 6.4 nM.
With `CCCCc1nc(CF)n(Cc2ccc(-c3ccccc3-c3nnn[nH]3)cc2)n1` [Compound 71], in experiment [1], the “Assay B pA2 (result given as symbol)” value is “* (Antagonist Activity not observed up to 10 μM of test compound.)”. For the same molecule, the IC50 in experiment [2] turned out to be 12000 nM.
In experiment [1], `CCCCn1nc(C(C#N)CCC)n(Cc2ccc(-c3ccccc3-c3nn[nH]n3)cc2)c1=O` (centres unmarked) [Compound 117] showed a Kb of 316 nM. Besides, the IC50 in experiment [2] was 170 nM.
On the same counts, the results for `CCCCc1nc(CC2CCCCC2)n(Cc2ccc(-c3ccccc3-c3nnn[nH]3)cc2)n1` [Compound 84] are 79.4 nM and 16 nM.
On the same counts, the results for `CCCCc1nc(C23CC4CC(CC(C4)C2)C3)nn1Cc1ccc(-c2ccccc2-c2nnn[nH]2)cc1` [Compound 67] are 1320 nM and 3100 nM.
On the same counts, the results for `CCCCc1nc(CCCC)n(Cc2ccc(-c3ccccc3C(=O)OC)cc2)n1` [Compound 12] are 2.19 nM and 6 nM.
In experiment [1], `CCCCc1nc2cnncc2n1Cc1ccc(-c2ccccc2-c2nnn[nH]2)cc1` [Compound 128] showed a Kb of 2.34 nM. This lies in the single-digit nanomolar range.
What is called inhibition in vivo is the change of the read-out against control, counted positive when it falls. A lower inhibition in vivo goes with a response near the control. For `CCCCc1cn(-c2ccccc2C)c(=O)n1Cc1ccc(-c2ccccc2-c2nnn[nH]2)nc1` [Compound 228], in experiment [2], the 50% inhibitory concentration (IC50) was found to be 4.5 nM. Besides, in experiment [3], testing at 3 mg/kg gave an inhibition in vivo of 80% and the “Assay C Duration” value was above 180 min.
On the same counts, the results for `CCCCn1nc(C(=O)CCC)nc1Cc1ccc(-c2ccccc2-c2nnn[nH]2)nc1` [Compound 171] are 28 nM, 0% and 0 min.
For `CCCCc1nc(C(=O)N(C)C(C)(C)C)n(Cc2ccc(-c3ccccc3-c3nnn[nH]3)nc2)n1` [Compound 267] the same measures were 25 nM, 25% and above 180 min.
On the same counts, the results for `CCCCn1nc(C(C)(F)F)nc1Cc1ccc(-c2ccccc2-c2nnn[nH]2)nc1` [Compound 177] are 26 nM, 15% and 180 min.
With `CCCCc1cn(CC(C)C)c(=O)n1Cc1ccc(-c2ccccc2-c2nnn[nH]2)nc1` [Compound 208], the IC50 in experiment [2] was 22 nM. Further, in experiment [3], the inhibition in vivo at 3 mg/kg worked out at 50% and the “Assay C Duration” value is above 180 min.
In experiment [2], `CCCCc1nc(C(=O)NC)nn1Cc1ccc(-c2ccccc2-c2nnn[nH]2)nc1` [Compound 268] returned an IC50 of 520 nM. In experiment [3], this molecule came in with an inhibition in vivo at 3 mg/kg of 0%.
Take `CCCCc1cn(-c2cccn2CC)c(=O)n1Cc1ccc(-c2ccccc2-c2nnn[nH]2)nc1` [Compound 249]: the half-maximal inhibitory concentration (IC50) in experiment [2] was 4.4 nM. Also, in experiment [3], the inhibition in vivo at 3 mg/kg stood at 20% and the “Assay C Duration” value was above 180 min.
For `CCCCc1cn(-c2c(OC)cccc2OC)c(=O)n1Cc1ccc(-c2ccccc2-c2nnn[nH]2)nc1` [Compound 241] the same measures were 6.9 nM, 40% and above 180 min.
For `CCCCc1nc(-c2ccccc2C)nn1Cc1ccc(-c2ccccc2-c2nnn[nH]2)nc1` [Compound 272] the same measures were 97 nM, 70% and above 180 min.
In the case of `CCCCc1nc(C(F)(F)C(F)(F)C(F)(F)F)nn1Cc1ccc(-c2ccccc2-c2nnn[nH]2)cc1` [Compound 81], the Kb in experiment [1] was 10 nM.
The molecule `CCCCc1cn(CCCC)c(=O)n1Cc1ccc(-c2ccccc2-c2nnn[nH]2)cn1` [Compound 234] returned an IC50 in experiment [2] of 5 nM. In experiment [3], this molecule registered an inhibition in vivo at 3 mg/kg of 20%.
The molecule `CCCCc1cn(-c2ccccc2OC)c(=O)n1Cc1ccc(-c2ccccc2-c2nnn[nH]2)nc1` [Compound 229] returned an IC50 in experiment [2] of 19 nM. Moreover, in experiment [3], at 3 mg/kg the inhibition in vivo was 40% and the “Assay C Duration” value was above 180 min.
